# From patent publication US7695930B2, “Method for the detection, identification and/or quantification of microoganisms with peptidase activity using phenoxazinone derivatives as enzyme substrates” (Biomerieux, priority 2003, dated 2010)
# Columns and labels:
# Assay in all cases: Leucine-peptidase detection on agar medium (Example 11); for color of the colony: key: B corresponds to fluorescent blue; R corresponds to pink
# Type in all cases: cell-based
# Citrobacter freundii = test system: Citrobacter freundii; for color of the colony: key: B corresponds to fluorescent blue; R corresponds to pink
# Description: (§1) The detection medium was prepared by mixing 1.4 g of biogelytone (bioMérieux), 0.84 g of meat extract (bioMérieux), 2.24 g of NaCl (Merck), 280 μl of a solution of IPTG (isopropylthio-β-D-galactopyranoside, BIOSYNTH) in water (concentration 10 g/l) and 4.2 g of European agar (bioMérieux).
# (§2) The substrate of the invention obtained in Example 2, in which the amino acid is leucine (leucine-9-aminobenzo[a]phenoxazin-5-one or Leu-ABP), or else a substrate of the prior art, which is leucine-aminomethylcoumarin (Leu-AMC, BACHEM), was then added in the following way: 280 ml of osmosed water were added to the medium, and the mixture was melted in a waterbath at 100° C. The mixture was autoclaved for 15 min at 121° C. and cooled to 50° C. in a waterbath.
# (§3) The medium was then poured into Petri dishes.
# (§4) The coloration of these colonies, the diffusion, and also the intensity of this coloration were noted.
# (§5) The results were expressed as intensity of coloration using an arbitrary scale ranging from 0 to 4 as a basis and also as diffusion also using an arbitrary scale ranging from 0 to 4 as a basis.
# Staphylococcus aureus = test system: Staphylococcus aureus; for color of the colony: key: B corresponds to fluorescent blue; R corresponds to pink
# Description: as §1, §2, §3, §4, §5
# Enterococcus faecalis = test system: Enterococcus faecalis; for color of the colony: key: B corresponds to fluorescent blue; R corresponds to pink
# Description: as §1, §2, §3, §4, §5
# Escherichia coli = test system: Escherichia coli; for color of the colony: key: B corresponds to fluorescent blue; R corresponds to pink
# Description: as §1, §2, §3, §4, §5
# Klebsellia pneumoniae = test system: Klebsellia pneumoniae; for color of the colony: key: B corresponds to fluorescent blue; R corresponds to pink
# Description: as §1, §2, §3, §4, §5
# Enterobacter cloaccae = test system: Enterobacter cloaccae; for color of the colony: key: B corresponds to fluorescent blue; R corresponds to pink
# Description: as §1, §2, §3, §4, §5
# Candida albicans = test system: Candida albicans; for color of the colony: key: B corresponds to fluorescent blue; R corresponds to pink
# Description: as §1, §2, §3, §4, §5
substance,measurement,setting,value
leucine-9-aminobenzo[a]phenoxazin-5-one [Leu-ABP],color of the colony,"Citrobacter freundii; 24 h, 25 mg/l",R
same,growth diameter,"Citrobacter freundii; 24 h, 25 mg/l",0.7 mm
same,"intensity of coloration, scale 0 to 4","Citrobacter freundii; 24 h, 25 mg/l",1.5
same,color of the colony,"Citrobacter freundii; 24 h, 50 mg/l",R
same,growth diameter,"Citrobacter freundii; 24 h, 50 mg/l",0.7 mm
same,"intensity of coloration, scale 0 to 4","Citrobacter freundii; 24 h, 50 mg/l",1.5
same,color of the colony,"Citrobacter freundii; 24 h, 100 mg/l",R
same,growth diameter,"Citrobacter freundii; 24 h, 100 mg/l",0.7 mm
same,"intensity of coloration, scale 0 to 4","Citrobacter freundii; 24 h, 100 mg/l",0.75
same,color of the colony,"Citrobacter freundii; 24 h, 200 mg/l",R
same,growth diameter,"Citrobacter freundii; 24 h, 200 mg/l",0.8 mm
same,"intensity of coloration, scale 0 to 4","Citrobacter freundii; 24 h, 200 mg/l",1
same,color of the colony,"Citrobacter freundii; 24 h, 400 mg/l",R
same,growth diameter,"Citrobacter freundii; 24 h, 400 mg/l",0.7 mm
same,"intensity of coloration, scale 0 to 4","Citrobacter freundii; 24 h, 400 mg/l",2
same,color of the colony,"Citrobacter freundii; 48 h, 25 mg/l",R
same,growth diameter,"Citrobacter freundii; 48 h, 25 mg/l",0.7 mm
same,"intensity of coloration, scale 0 to 4","Citrobacter freundii; 48 h, 25 mg/l",2.5
same,color of the colony,"Citrobacter freundii; 48 h, 50 mg/l",R
same,growth diameter,"Citrobacter freundii; 48 h, 50 mg/l",0.7 mm
same,"intensity of coloration, scale 0 to 4","Citrobacter freundii; 48 h, 50 mg/l",2.5
same,color of the colony,"Citrobacter freundii; 48 h, 100 mg/l",R
same,growth diameter,"Citrobacter freundii; 48 h, 100 mg/l",0.7 mm
same,"intensity of coloration, scale 0 to 4","Citrobacter freundii; 48 h, 100 mg/l",1.5
same,color of the colony,"Citrobacter freundii; 48 h, 200 mg/l",R
same,growth diameter,"Citrobacter freundii; 48 h, 200 mg/l",0.8 mm
same,"intensity of coloration, scale 0 to 4","Citrobacter freundii; 48 h, 200 mg/l",2
same,color of the colony,"Citrobacter freundii; 48 h, 400 mg/l",R
same,growth diameter,"Citrobacter freundii; 48 h, 400 mg/l",0.7 mm
same,"intensity of coloration, scale 0 to 4","Citrobacter freundii; 48 h, 400 mg/l",2
same,growth diameter,"Staphylococcus aureus; 24 h, 25 mg/l",0.3 mm
same,growth diameter,"Staphylococcus aureus; 24 h, 50 mg/l",0.2 mm
same,color of the colony,"Staphylococcus aureus; 48 h, 25 mg/l",R
same,growth diameter,"Staphylococcus aureus; 48 h, 25 mg/l",0.7 mm
same,"intensity of coloration, scale 0 to 4","Staphylococcus aureus; 48 h, 25 mg/l",0.25
same,growth diameter,"Staphylococcus aureus; 48 h, 50 mg/l",0.2 mm
same,color of the colony,"Enterococcus faecalis; 24 h, 25 mg/l",R
same,growth diameter,"Enterococcus faecalis; 24 h, 25 mg/l",0.3 mm
same,"intensity of coloration, scale 0 to 4","Enterococcus faecalis; 24 h, 25 mg/l",0.0
same,color of the colony,"Enterococcus faecalis; 24 h, 50 mg/l",R
same,growth diameter,"Enterococcus faecalis; 24 h, 50 mg/l",0.3 mm
same,"intensity of coloration, scale 0 to 4","Enterococcus faecalis; 24 h, 50 mg/l",0.0
same,growth diameter,"Enterococcus faecalis; 24 h, 100 mg/l",0.3 mm
same,growth diameter,"Enterococcus faecalis; 24 h, 200 mg/l",0.3 mm
same,growth diameter,"Enterococcus faecalis; 24 h, 400 mg/l",0.3 mm
same,color of the colony,"Enterococcus faecalis; 48 h, 25 mg/l",R
same,growth diameter,"Enterococcus faecalis; 48 h, 25 mg/l",0.3 mm
same,"intensity of coloration, scale 0 to 4","Enterococcus faecalis; 48 h, 25 mg/l",0.0
same,color of the colony,"Enterococcus faecalis; 48 h, 50 mg/l",R
same,growth diameter,"Enterococcus faecalis; 48 h, 50 mg/l",0.3 mm
same,"intensity of coloration, scale 0 to 4","Enterococcus faecalis; 48 h, 50 mg/l",0.0
same,color of the colony,"Enterococcus faecalis; 48 h, 100 mg/l",R
same,growth diameter,"Enterococcus faecalis; 48 h, 100 mg/l",0.3 mm
same,"intensity of coloration, scale 0 to 4","Enterococcus faecalis; 48 h, 100 mg/l",0.0
same,growth diameter,"Enterococcus faecalis; 48 h, 200 mg/l",0.3 mm
same,color of the colony,"Enterococcus faecalis; 48 h, 400 mg/l",R
same,growth diameter,"Enterococcus faecalis; 48 h, 400 mg/l",0.3 mm
same,"intensity of coloration, scale 0 to 4","Enterococcus faecalis; 48 h, 400 mg/l",0.5
same,color of the colony,"Escherichia coli; 24 h, 25 mg/l",R
same,growth diameter,"Escherichia coli; 24 h, 25 mg/l",1.8 mm
same,"intensity of coloration, scale 0 to 4","Escherichia coli; 24 h, 25 mg/l",0.0
same,color of the colony,"Escherichia coli; 24 h, 50 mg/l",R
same,growth diameter,"Escherichia coli; 24 h, 50 mg/l",1.7 mm
same,"intensity of coloration, scale 0 to 4","Escherichia coli; 24 h, 50 mg/l",0.5
same,color of the colony,"Escherichia coli; 24 h, 100 mg/l",R
same,growth diameter,"Escherichia coli; 24 h, 100 mg/l",1.8 mm
same,"intensity of coloration, scale 0 to 4","Escherichia coli; 24 h, 100 mg/l",0.0
same,growth diameter,"Escherichia coli; 24 h, 200 mg/l",1.7 mm
same,color of the colony,"Escherichia coli; 24 h, 400 mg/l",R
same,growth diameter,"Escherichia coli; 24 h, 400 mg/l",1.8 mm
same,"intensity of coloration, scale 0 to 4","Escherichia coli; 24 h, 400 mg/l",0.75
same,color of the colony,"Escherichia coli; 48 h, 25 mg/l",R
same,growth diameter,"Escherichia coli; 48 h, 25 mg/l",1.8 mm
same,"intensity of coloration, scale 0 to 4","Escherichia coli; 48 h, 25 mg/l",0.25
same,color of the colony,"Escherichia coli; 48 h, 50 mg/l",R
same,growth diameter,"Escherichia coli; 48 h, 50 mg/l",1.8 mm
same,"intensity of coloration, scale 0 to 4","Escherichia coli; 48 h, 50 mg/l",0.5
same,color of the colony,"Escherichia coli; 48 h, 100 mg/l",R
same,growth diameter,"Escherichia coli; 48 h, 100 mg/l",1.8 mm
same,growth diameter,"Escherichia coli; 48 h, 200 mg/l",1.7 mm
same,growth diameter,"Escherichia coli; 48 h, 400 mg/l",1.8 mm
same,color of the colony,"Klebsellia pneumoniae; 24 h, 25 mg/l",R
same,growth diameter,"Klebsellia pneumoniae; 24 h, 25 mg/l",1.8 mm
same,"intensity of coloration, scale 0 to 4","Klebsellia pneumoniae; 24 h, 25 mg/l",1.5
same,color of the colony,"Klebsellia pneumoniae; 24 h, 50 mg/l",R
same,growth diameter,"Klebsellia pneumoniae; 24 h, 50 mg/l",1.7 mm
same,"intensity of coloration, scale 0 to 4","Klebsellia pneumoniae; 24 h, 50 mg/l",1.5
same,color of the colony,"Klebsellia pneumoniae; 24 h, 100 mg/l",R
same,growth diameter,"Klebsellia pneumoniae; 24 h, 100 mg/l",1.7 mm
same,"intensity of coloration, scale 0 to 4","Klebsellia pneumoniae; 24 h, 100 mg/l",1.5
same,color of the colony,"Klebsellia pneumoniae; 24 h, 200 mg/l",R
same,growth diameter,"Klebsellia pneumoniae; 24 h, 200 mg/l",1.7 mm
same,"intensity of coloration, scale 0 to 4","Klebsellia pneumoniae; 24 h, 200 mg/l",2
same,color of the colony,"Klebsellia pneumoniae; 24 h, 400 mg/l",R
same,growth diameter,"Klebsellia pneumoniae; 24 h, 400 mg/l",1.7 mm
same,"intensity of coloration, scale 0 to 4","Klebsellia pneumoniae; 24 h, 400 mg/l",2.5
same,color of the colony,"Klebsellia pneumoniae; 48 h, 25 mg/l",R
same,growth diameter,"Klebsellia pneumoniae; 48 h, 25 mg/l",1.8 mm
same,"intensity of coloration, scale 0 to 4","Klebsellia pneumoniae; 48 h, 25 mg/l",2
same,color of the colony,"Klebsellia pneumoniae; 48 h, 50 mg/l",R
same,growth diameter,"Klebsellia pneumoniae; 48 h, 50 mg/l",1.7 mm
same,"intensity of coloration, scale 0 to 4","Klebsellia pneumoniae; 48 h, 50 mg/l",2.5
same,color of the colony,"Klebsellia pneumoniae; 48 h, 100 mg/l",R
same,growth diameter,"Klebsellia pneumoniae; 48 h, 100 mg/l",1.7 mm
same,"intensity of coloration, scale 0 to 4","Klebsellia pneumoniae; 48 h, 100 mg/l",1.5
same,color of the colony,"Klebsellia pneumoniae; 48 h, 200 mg/l",R
same,growth diameter,"Klebsellia pneumoniae; 48 h, 200 mg/l",1.7 mm
same,"intensity of coloration, scale 0 to 4","Klebsellia pneumoniae; 48 h, 200 mg/l",1
same,color of the colony,"Klebsellia pneumoniae; 48 h, 400 mg/l",R
same,growth diameter,"Klebsellia pneumoniae; 48 h, 400 mg/l",1.8 mm
same,"intensity of coloration, scale 0 to 4","Klebsellia pneumoniae; 48 h, 400 mg/l",1
same,color of the colony,"Enterobacter cloaccae; 24 h, 25 mg/l",R
same,growth diameter,"Enterobacter cloaccae; 24 h, 25 mg/l",0.7 mm
same,"intensity of coloration, scale 0 to 4","Enterobacter cloaccae; 24 h, 25 mg/l",1.5
same,color of the colony,"Enterobacter cloaccae; 24 h, 50 mg/l",R
same,growth diameter,"Enterobacter cloaccae; 24 h, 50 mg/l",0.5 mm
same,"intensity of coloration, scale 0 to 4","Enterobacter cloaccae; 24 h, 50 mg/l",2.5
same,color of the colony,"Enterobacter cloaccae; 24 h, 100 mg/l",R
same,growth diameter,"Enterobacter cloaccae; 24 h, 100 mg/l",1 mm
same,"intensity of coloration, scale 0 to 4","Enterobacter cloaccae; 24 h, 100 mg/l",3
same,color of the colony,"Enterobacter cloaccae; 24 h, 200 mg/l",R
same,growth diameter,"Enterobacter cloaccae; 24 h, 200 mg/l",1.5 mm
same,"intensity of coloration, scale 0 to 4","Enterobacter cloaccae; 24 h, 200 mg/l",3
same,color of the colony,"Enterobacter cloaccae; 24 h, 400 mg/l",R
same,growth diameter,"Enterobacter cloaccae; 24 h, 400 mg/l",1.5 mm
same,"intensity of coloration, scale 0 to 4","Enterobacter cloaccae; 24 h, 400 mg/l",3
same,color of the colony,"Enterobacter cloaccae; 48 h, 25 mg/l",R
same,growth diameter,"Enterobacter cloaccae; 48 h, 25 mg/l",0.7 mm
same,"intensity of coloration, scale 0 to 4","Enterobacter cloaccae; 48 h, 25 mg/l",2.5
same,color of the colony,"Enterobacter cloaccae; 48 h, 50 mg/l",R
same,growth diameter,"Enterobacter cloaccae; 48 h, 50 mg/l",0.5 mm
same,"intensity of coloration, scale 0 to 4","Enterobacter cloaccae; 48 h, 50 mg/l",3
same,color of the colony,"Enterobacter cloaccae; 48 h, 100 mg/l",R
same,growth diameter,"Enterobacter cloaccae; 48 h, 100 mg/l",1.3 mm
same,"intensity of coloration, scale 0 to 4","Enterobacter cloaccae; 48 h, 100 mg/l",3
same,color of the colony,"Enterobacter cloaccae; 48 h, 200 mg/l",R
same,growth diameter,"Enterobacter cloaccae; 48 h, 200 mg/l",1.5 mm
same,"intensity of coloration, scale 0 to 4","Enterobacter cloaccae; 48 h, 200 mg/l",3
same,color of the colony,"Enterobacter cloaccae; 48 h, 400 mg/l",R
same,growth diameter,"Enterobacter cloaccae; 48 h, 400 mg/l",1.7 mm
same,"intensity of coloration, scale 0 to 4","Enterobacter cloaccae; 48 h, 400 mg/l",3
same,growth diameter,"Candida albicans; 24 h, 25 mg/l",0.3 mm
same,color of the colony,"Candida albicans; 48 h, 25 mg/l",R
same,growth diameter,"Candida albicans; 48 h, 25 mg/l",0.5 mm
same,"intensity of coloration, scale 0 to 4","Candida albicans; 48 h, 25 mg/l",0.25
same,growth diameter,"Candida albicans; 48 h, 50 mg/l",0.3 mm
